ChEMBL document CHEMBL1126058, “Development of potent and selective CCK-A receptor agonists from Boc-CCK-4: tetrapeptides containing Lys(N epsilon)-amide residues” (J Med Chem, 1992)
Where a SMILES comes first, the peptide text is derived from it. [ ]: non-standard residue; d: D form. The star is where a group is joined. X13 = O=C(c1ccc2cc(OS(=O)(=O)O)ccc2c1)*; X23 = O=C(/C=C/c1ccc(OS(=O)(=O)O)cc1)*; X28 = O=C(/C=C\c1cccc(OS(=O)(=O)O)c1)*; X15 = O=C(/C=C\c1ccc(C(F)(F)F)cc1)*; X20 = CC(=O)Oc1ccc2cc(C(=O)*)ccc2c1; X22 = O=C(CCc1cccc(OS(=O)(=O)O)c1)*; X17 = COc1ccc(/C=C\C(=O)*)c(OC)c1; X24 = O=C(/C=C/c1c[nH]c2ccccc12)*; X26 = O=C(/C=C\c1ccc(Cl)c(Cl)c1)*; NMeF = CN[C@@H](Cc1ccccc1)C(=O)O; X30 = O=C(CCc1ccc(C(F)(F)F)cc1)*; X10 = O=C(/C=C\c1ccc(Cl)cc1Cl)*; X14 = O=C(c1cc2cc(O)ccc2[nH]1)*; X31 = COc1ccc(/C=C\C(=O)*)cc1OC; X12 = O=C(c1cnc2cccc(O)c2c1)*; X21 = O=C(/C=C\c1ccc(Br)cc1)*; X25 = COc1ccc(/C=C\C(=O)*)cc1; X33 = O=C(/C=C/c1ccc(Cl)cc1)*; X11 = O=C(/C=C\c1ccc(O)cc1)*; X18 = O=C(c1cc2ccccc2[nH]1)*; X29 = O=C(/C=C\c1cccc(O)c1)*; X32 = Cc1ccc(/C=C\C(=O)*)cc1; X16 = O=C(/C=C\c1ccccc1O)*; X19 = O=C(/C=C\c1ccccc1)*; X27 = O=C(Cc1ccc(O)cc1)*; Boc = CC(C)(C)OC(=O)*

Assays:
Cavia porcellus [1] = species on record: Cavia porcellus; experiment: Stimulation of amylase release in guinea pig pancreas; format: functional
Cavia porcellus [2] = species on record: Cavia porcellus; experiment: Hydrolysis of phosphoinositide (PI) relative to maximal response elicited by CCK-8 in guinea pig pancreas.; format: functional
[3] = molecular target: T1, Cholecystokinin receptor type A (Cavia porcellus, UniProt Q63931); experiment: Inhibition of specific binding of [125I]BH-CCK-8 in guinea pig pancreas.
T1 sequence (Q63931 whole entry): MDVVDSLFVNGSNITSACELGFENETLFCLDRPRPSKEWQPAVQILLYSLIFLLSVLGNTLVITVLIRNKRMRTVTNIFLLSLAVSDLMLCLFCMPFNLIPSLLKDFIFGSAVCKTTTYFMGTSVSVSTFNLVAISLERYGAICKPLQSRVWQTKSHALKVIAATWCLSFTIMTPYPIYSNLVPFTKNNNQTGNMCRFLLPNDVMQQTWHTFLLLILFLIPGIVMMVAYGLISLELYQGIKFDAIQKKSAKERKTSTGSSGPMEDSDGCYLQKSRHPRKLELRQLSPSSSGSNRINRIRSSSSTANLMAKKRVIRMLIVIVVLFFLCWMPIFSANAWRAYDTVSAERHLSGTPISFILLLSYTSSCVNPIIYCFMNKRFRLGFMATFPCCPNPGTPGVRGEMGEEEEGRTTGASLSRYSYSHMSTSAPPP

| SMILES | EC50 (Cavia porcellus [1]) | IC50 [3] | Max (Cavia porcellus [2]) |
| --- | --- | --- | --- |
| CC(C)(C)OC(=O)N[C@@H](Cc1c[nH]c2ccccc12)C(=O)N[C@@H](CCCCNC(=O)c1cnc2cccc(O)c2c1)C(=O)N[C@@H](CC(=O)O)C(=O)N[C@@H](Cc1ccccc1)C(N)=O (Boc-WK(X12)DF-NH2) | 0.0023 µM | 0.0077 µM | 45% |
| CC(C)(C)OC(=O)N[C@@H](Cc1c[nH]c2ccccc12)C(=O)N[C@@H](CCCCNC(=O)c1ccc2cc(OS(=O)(=O)O)ccc2c1)C(=O)N[C@@H](CC(=O)O)C(=O)N[C@@H](Cc1ccccc1)C(N)=O (Boc-WK(X13)DF-NH2) | 0.0035 µM | 0.0029 µM | 49% |
| CC(C)(C)OC(=O)N[C@@H](Cc1c[nH]c2ccccc12)C(=O)N[C@@H](CCCCNC(=O)/C=C\c1ccc(C(F)(F)F)cc1)C(=O)N[C@@H](CC(=O)O)C(=O)N[C@@H](Cc1ccccc1)C(N)=O (Boc-WK(X15)DF-NH2) | 0.055 µM | 0.22 µM | 60% |
| CC(C)(C)OC(=O)N[C@@H](Cc1c[nH]c2ccccc12)C(=O)N[C@@H](CCCCNC(=O)/C=C\c1ccccc1O)C(=O)N[C@@H](CC(=O)O)C(=O)N[C@@H](Cc1ccccc1)C(N)=O (Boc-WK(X16)DF-NH2) | 0.21 µM | 0.11 µM | 54% |
| CC(=O)Oc1ccc2cc(C(=O)NCCCC[C@H](NC(=O)[C@H](Cc3c[nH]c4ccccc34)NC(=O)OC(C)(C)C)C(=O)N[C@@H](CC(=O)O)C(=O)N[C@@H](Cc3ccccc3)C(N)=O)ccc2c1 (Boc-WK(X20)DF-NH2) | 0.011 µM | 0.008 µM | 49% |
| CC(=O)Oc1ccc2cc(C(=O)NCCCC[C@H](NC(=O)[C@H](Cc3c[nH]c4ccccc34)NC(=O)OC(C)(C)C)C(=O)N[C@@H](CC(=O)O)C(=O)N(C)[C@@H](Cc3ccccc3)C(N)=O)ccc2c1 (Boc-WK(X20)D[NMeF]-NH2) | 0.029 µM | 0.0034 µM | 58% |
| CC(C)(C)OC(=O)N[C@@H](Cc1c[nH]c2ccccc12)C(=O)N[C@@H](CCCCNC(=O)/C=C/c1c[nH]c2ccccc12)C(=O)N[C@@H](CC(=O)O)C(=O)N[C@@H](Cc1ccccc1)C(N)=O (Boc-WK(X24)DF-NH2) | 0.03 µM | 0.019 µM | 55% |
| CC(C)(C)OC(=O)N[C@@H](Cc1c[nH]c2ccccc12)C(=O)N[C@@H](CCCCNC(=O)/C=C\c1cccc(OS(=O)(=O)O)c1)C(=O)N[C@@H](CC(=O)O)C(=O)N[C@@H](Cc1ccccc1)C(N)=O (Boc-WK(X28)DF-NH2) | 0.025 µM | 0.039 µM | 70% |
| CC(C)(C)OC(=O)N[C@@H](Cc1c[nH]c2ccccc12)C(=O)N[C@@H](CCCCNC(=O)/C=C\c1cccc(O)c1)C(=O)N[C@@H](CC(=O)O)C(=O)N[C@@H](Cc1ccccc1)C(N)=O (Boc-WK(X29)DF-NH2) | 0.059 µM | 0.022 µM | 54% |
| Cc1ccc(/C=C\C(=O)NCCCC[C@H](NC(=O)[C@H](Cc2c[nH]c3ccccc23)NC(=O)OC(C)(C)C)C(=O)N[C@@H](CC(=O)O)C(=O)N[C@@H](Cc2ccccc2)C(N)=O)cc1 (Boc-WK(X32)DF-NH2) | 0.052 µM | 0.071 µM | 71% |
| CN(C(=O)[C@H](CC(=O)O)NC(=O)[C@H](CCCCNC(=O)/C=C/c1ccc(Cl)cc1)NC(=O)[C@H](Cc1c[nH]c2ccccc12)NC(=O)OC(C)(C)C)[C@@H](Cc1ccccc1)C(N)=O (Boc-WK(X33)D[NMeF]-NH2) | 0.0086 µM | 0.015 µM | 68% |

Continued, in another order:

| EC50 (Cavia porcellus [1]) | IC50 [3] | SMILES | Max (Cavia porcellus [2]) |
| --- | --- | --- | --- |
| 0.09 µM | 0.13 µM | CC(C)(C)OC(=O)N[C@@H](Cc1c[nH]c2ccccc12)C(=O)N[C@@H](CCCCNC(=O)/C=C\c1ccc(Cl)cc1Cl)C(=O)N[C@@H](CC(=O)O)C(=O)N[C@@H](Cc1ccccc1)C(N)=O (Boc-WK(X10)DF-NH2) | 86% |
| 0.0039 µM | 0.016 µM | CC(C)(C)OC(=O)N[C@@H](Cc1c[nH]c2ccccc12)C(=O)N[C@@H](CCCCNC(=O)/C=C\c1ccc(O)cc1)C(=O)N[C@@H](CC(=O)O)C(=O)N[C@@H](Cc1ccccc1)C(N)=O (Boc-WK(X11)DF-NH2) | 76% |
| 0.068 µM | 0.014 µM | CC(C)(C)OC(=O)N[C@@H](Cc1c[nH]c2ccccc12)C(=O)N[C@@H](CCCCNC(=O)c1cc2cc(O)ccc2[nH]1)C(=O)N[C@@H](CC(=O)O)C(=O)N[C@@H](Cc1ccccc1)C(N)=O (Boc-WK(X14)DF-NH2) | 23% |
| 0.014 µM | 0.038 µM | COc1ccc(/C=C\C(=O)NCCCC[C@H](NC(=O)[C@H](Cc2c[nH]c3ccccc23)NC(=O)OC(C)(C)C)C(=O)N[C@@H](CC(=O)O)C(=O)N[C@@H](Cc2ccccc2)C(N)=O)c(OC)c1 (Boc-WK(X17)DF-NH2) | 82% |
| 0.02 µM | 0.039 µM | CC(C)(C)OC(=O)N[C@@H](Cc1c[nH]c2ccccc12)C(=O)N[C@@H](CCCCNC(=O)c1cc2ccccc2[nH]1)C(=O)N[C@@H](CC(=O)O)C(=O)N[C@@H](Cc1ccccc1)C(N)=O (Boc-WK(X18)DF-NH2) | 18% |
| 0.03 µM | 0.055 µM | CC(C)(C)OC(=O)N[C@@H](Cc1c[nH]c2ccccc12)C(=O)N[C@@H](CCCCNC(=O)/C=C\c1ccccc1)C(=O)N[C@@H](CC(=O)O)C(=O)N[C@@H](Cc1ccccc1)C(N)=O (Boc-WK(X19)DF-NH2) | 52% |
| 0.038 µM | 0.14 µM | CC(C)(C)OC(=O)N[C@@H](Cc1c[nH]c2ccccc12)C(=O)N[C@@H](CCCCNC(=O)/C=C\c1ccc(Br)cc1)C(=O)N[C@@H](CC(=O)O)C(=O)N[C@@H](Cc1ccccc1)C(N)=O (Boc-WK(X21)DF-NH2) | 72% |
| 0.069 µM | 0.18 µM | CC(C)(C)OC(=O)N[C@@H](Cc1c[nH]c2ccccc12)C(=O)N[C@@H](CCCCNC(=O)CCc1cccc(OS(=O)(=O)O)c1)C(=O)N[C@@H](CC(=O)O)C(=O)N[C@@H](Cc1ccccc1)C(N)=O (Boc-WK(X22)DF-NH2) | 50% |
| 0.0029 µM | 0.022 µM | CN(C(=O)[C@H](CC(=O)O)NC(=O)[C@H](CCCCNC(=O)/C=C/c1ccc(OS(=O)(=O)O)cc1)NC(=O)[C@H](Cc1c[nH]c2ccccc12)NC(=O)OC(C)(C)C)[C@@H](Cc1ccccc1)C(N)=O (Boc-WK(X23)D[NMeF]-NH2) | 74% |
| 0.02 µM | 0.03 µM | COc1ccc(/C=C\C(=O)NCCCC[C@H](NC(=O)[C@H](Cc2c[nH]c3ccccc23)NC(=O)OC(C)(C)C)C(=O)N[C@@H](CC(=O)O)C(=O)N[C@@H](Cc2ccccc2)C(N)=O)cc1 (Boc-WK(X25)DF-NH2) | 72% |
| 0.046 µM | 0.049 µM | CC(C)(C)OC(=O)N[C@@H](Cc1c[nH]c2ccccc12)C(=O)N[C@@H](CCCCNC(=O)/C=C\c1ccc(Cl)c(Cl)c1)C(=O)N[C@@H](CC(=O)O)C(=O)N[C@@H](Cc1ccccc1)C(N)=O (Boc-WK(X26)DF-NH2) | 62% |
| 30 µM | 1.1 µM | CC(C)(C)OC(=O)N[C@@H](Cc1c[nH]c2ccccc12)C(=O)N[C@@H](CCCCNC(=O)Cc1ccc(O)cc1)C(=O)N[C@@H](CC(=O)O)C(=O)N[C@@H](Cc1ccccc1)C(N)=O (Boc-WK(X27)DF-NH2) | 88% |
| 30 µM | 0.39 µM | CC(C)(C)OC(=O)N[C@@H](Cc1c[nH]c2ccccc12)C(=O)N[C@@H](CCCCNC(=O)CCc1ccc(C(F)(F)F)cc1)C(=O)N[C@@H](CC(=O)O)C(=O)N[C@@H](Cc1ccccc1)C(N)=O (Boc-WK(X30)DF-NH2) | 77% |
| 0.017 µM | 0.04 µM | COc1ccc(/C=C\C(=O)NCCCC[C@H](NC(=O)[C@H](Cc2c[nH]c3ccccc23)NC(=O)OC(C)(C)C)C(=O)N[C@@H](CC(=O)O)C(=O)N[C@@H](Cc2ccccc2)C(N)=O)cc1OC (Boc-WK(X31)DF-NH2) | 61% |
